The conditions of series [1]: cited from earlier work.
The test system of the next series is Intracellular Adenosine. The arrangement: species or system Fischer 344 rats. Particulars: rat, in vivo, po. On the procedure: Folinic acid (50 mg/kg) was administered intraperitoneally once daily for fourteen days. […] Hearts were removed from animals and flash frozen in liquid nitrogen within 10 seconds of death. Liver and lungs were removed en bloc and flash frozen within 30 seconds of death. Brain tissue was subsequently dissected.

These results are taken from US20030202935A1, “Composition and formulations and their use as nociceptic, anti-axniolytic and anabolic agents” (priority 2000, published 2003).

Each structure is given as a SMILES string.

Consider `Nc1ncnc2c1ncn2[C@@H]1O[C@H](CO)[C@@H](O)[C@H]1O` [adenosine], for which the half life entry in series [1] is “about a second”.

Take `Nc1nc(=O)c2c([nH]1)NCC(CNc1ccc(C(=O)N[C@@H](CCC(=O)O)C(=O)O)cc1)N2C=O` (mixture of isomers) [Folinic Acid (F.A.), folinic acid]: in the series with Intracellular Adenosine, the “adenosine levels in the brain” value is recorded as “dramatic increase”.
